{"source": "patent US20080227809A1", "about": "“Arylalkylamine Vanadium (V) Salts for the Treatment and/or Prevention of Diabetes Mellitus” (GENMEDICA THERAPEUTICS SL, priority 2004, published 2008)", "key": {"[1]": {"test_system": "isolated rat adipocytes", "test": "glucose transport (2-deoxyglucose uptake) in isolated rat adipocytes", "format": "cell-based", "conditions": "for stimulatory effect on glucose transport in the presence of semicarbazide: 1 mM semicarbazide (SSAO inhibitor); for stimulation of glucose transport: 45 min incubation", "protocol": "In order to determine whether salts formed by vanadate and benzylamine could produce an insulin mimetic effect, the effect of increasing concentrations of hexaquis(benzylammonium) decavanadate on glucose transport activity in isolated rat adipocytes was tested. Hexaquis(benzylammonium) decavanadate induced the stimulation of glucose transport which was perceptible from concentrations of 0.5 μM, with a maximal effect observed 2.5 μM and the semimaximal effect above 1 μM. […] The maximum effect provoked by incubation with hexaquis(benzylammonium) decavanadate was greater than that produced by the presence of benzylamine and vanadate in combination (FIG. 1). […] In similar assays, the activity of hexaquis(benzylammonium) decavanadate, pentaquis(benzylammonium) decavanadate and tetraquis(benzylammonium) decavanadate on glucose transport activity in isolated rat adipocytes were analyzed.\nTo determine the possible insulin mimetic effect of certain vanadium arylalkylamines, the capacity of these compounds to enhance glucose transport in isolated rat adipocytes was tested. Adipose cells from Wistar rats were incubated for 45 minutes in basal conditions (Basal) or in the presence of 100 nM insulin (Ins), and different concentrations of. hexaquis(benzylammonium) decavanadate (B6V10) in the absence or in the presence of 1 mM semicarbazide (SCZ). Subsequently, 2-DG transport was measured over a 5 min. interval.\nThe effects of the three tested compounds (B6V10, B5V10 and B4V10) were compared. Adipose cells from Wistar rats were incubated for 45 minutes in basal conditions (Basal) or in the presence of 100 nM insulin (Ins), and different concentrations of. decavanadate (V10), hexaquis(benzylammonium) decavanadate (B6V10), pentaquis(benzylammonium) decavanadate (B5V10) or tetraquis(benzylammonium) decavanadate (B4V10) in the absence or in the presence of 1 mM semicarbazide (SCZ). 2-DG transport was measured over 5 min. intervals. […] The stimulation of all three compounds on glucose transport was blocked in the presence of semicarbazide.\nIn additional experiments, compounds shown in FIG. 6A (named 2-(4-fluoro-phenyl)-ethylamine (compound A), 3-phenyl-propylamine (compound B), 4-fluoro-benzylamine (compound C) and 4-phenyl-butylamine (compound D)) were assessed using the experimental methods set forth above for the capacity to stimulate 2-DG uptake in isolated rat adipocytes. Adipose cells from Wistar rats were incubated for 45 minutes in basal conditions (Basal) or in the presence of 100 nM insulin (Ins), and different concentrations of vanadium salts of 2-(4-fluoro-phenyl)-ethylamine (compound A), 3-phenyl-propylamine (compound B), 4-fluoro-benzylamine (compound C) and 4-phenyl-butylamine (compound D). 2-DG transport was measured over 5 min.\nThe effects of incubation with semicarbazide or phosphatidylinositol 3-kinase inhibitors were also investigated. Adipose cells were incubated with B6V10 (25 μM, 45 min) in the absence or presence of wortmannin (2 μM, 45 min), LY294002 (10 μM, 45 min) or semicarbazide (1 mM, 45 min) and thereafter 2-deoxyglucose uptake was determined during 5 min. Activation of protein kinase B phosphorylation induced by B6V10 was blocked by semicarbazide and it was not observed by decavanadate. In addition, phosphatidylinositol 3-kinase inhibitors wortmannin and LY294002 blocked B6V10-induced glucose transport (FIG. 7E)."}, "[2]": {"test_system": "streptozotocin-induced diabetic rats", "test": "chronic subcutaneous (osmotic minipump) treatment, glycemia of streptozotocin (45 mg/kg) diabetic rats", "format": "in vivo, rat", "conditions": "for effect on glycemia: 2.5 μmol/kg/day subcutaneous by osmotic minipumps, about two weeks", "protocol": "Insulin concentrations were determined before and after treatment.\nThe effect of chronic administration of hexaquis(benzylammonium) decavanadate on glycemia from diabetic rats was determined. Thus, diabetes was induced in rats by intravenous administration of streptozotocin, which destroys the β-pancreatic cells that produce insulin.\n(§1) Chronic in vivo efficacy of B6V10 was evaluated in streptozotocin-induced diabetic rats and in db/db mice. Streptozotocin-induced (45 mg/kg) diabetic rats were subcutaneously treated with hexaquis(benzylammonium) decavanadate (2.5 μmol/kg) (B6V10, solid squares, FIG. 8A) or with decavanadate (2.5 μmol/kg) (V10, open circles, FIG. 8A) delivered subcutaneously by osmotic minipumps implanted in the dorsal region. Diabetic rats were also sham-operated (untreated, solid diamonds, FIG. 8A). […] These experiments were repeated using an oral administration protocol. Streptozotocin-induced (45 mg/kg) diabetic rats were orally treated with hexaquis(benzylammonium) decavanadate (5 μmol/kg from day 0 to day 7 and 10 μmol/kg/day from day 7 to day 17) (B6V10, solid squares, FIG. 8B) or received decavanadate (10 μmol/kg) (V10, open circles, FIG. 8B). Nondiabetic rats were also untreated (solid triangles, FIG. 8B)."}, "[3]": {"test_system": "streptozotocin-induced diabetic rats", "test": "chronic oral treatment, glycemia of streptozotocin (45 mg/kg) diabetic rats", "format": "in vivo, rat", "protocol": "The effect of the oral administration of hexaquis(benzylammonium) decavanadate on glycemia from diabetic rats was also studied. Diabetes was induced in rats by intravenous administration of streptozotocin, and subsequently, a hexaquis(benzylammonium) decavanadate or sodium decavanadate unique dose was administered to the rats. […] After seven days of treatment, the dose was increased at 10 μmol/kg/day which was maintained for an additional ten days. […] Thus, glycemia in sodium decavanadate treated rats was approximately 450 mg/dl and glycemia of hexaquis(benzylammonium) decavanadate treated rats was approximately 250 mg/dl.\nas §1"}, "[4]": {"test_system": "high-fat fed mice", "test": "glucose tolerance and plasma insulin in high-fat fed mice", "format": "in vivo, mouse", "protocol": "Insulin and glucose responses during the glucose tolerance test were calculated as the incremental plasma values integrated over a period of 120 min after injection of glucose. Areas under curves of insulin and glucose responses were calculated using the Graph Prism program (SOURCE?). Data distribution was analyzed by the Kolmogorov-Smirnov test. Data were presented as mean ±SEM and unpaired Student's t test was used to compare two groups. When experimental series involved more than two groups, statistical analysis was done by one-way or two-way ANOVA and further post-hoc (Dunnett, Tukey or Bonferroni) t tests. Statistical analysis was performed with SPSS 11.0 or GraphPad Prism 4 programs."}, "[5]": {"conditions": "listed as hexaquis(benzylammonium) decavanadate"}}, "note": "Entries after “also recorded” stand apart in the source; their conditions may differ.", "data": [{"substance": "hexaquis(benzylammonium) decavanadate [Example B6V10]", "values": [{"measurement": "stimulation of glucose transport compared with combination of 100 μM benzylamine and 100 μM vanadate", "setting": "[1]; 25 μM B6V10, data not shown", "result": "greater stimulation"}, {"measurement": "stimulatory effect on glucose transport in the presence of semicarbazide", "setting": "[1]", "result": "completely blocked"}, {"measurement": "stimulatory effect on glucose transport in the presence of semicarbazide", "setting": "[1]; [5]", "result": "completely blocked; also recorded: inhibited"}, {"measurement": "maximum effect on glucose transport compared with benzylamine and vanadate in combination", "setting": "[1]; combination 100 μM sodium vanadate and 100 μM benzylamine (FIG. 1)", "result": "greater"}, {"measurement": "maximal effect on glucose transport relative to the maximal stimulation caused by insulin", "setting": "[1]; insulin 100 nM", "result": 85, "unit": "%"}, {"measurement": "concentration at which maximal effect on glucose transport was observed", "setting": "[1]; isolated rat adipocytes", "result": 2.5, "unit": "µM"}, {"measurement": "concentration from which stimulation of glucose transport was perceptible", "setting": "[1]; isolated rat adipocytes", "result": 0.5, "unit": "µM"}, {"measurement": "stimulation of glucose transport", "setting": "[1]; isolated rat adipocytes", "result": "stimulated glucose transport in rat adipocytes in a concentration-dependent manner"}, {"measurement": "stimulation of glucose transport", "setting": "[1]; isolated rat adipocytes, listed as hexaquis(benzylammonium) decavanadate", "result": "pronounced stimulation"}, {"measurement": "EC50", "setting": "[1]; isolated rat adipocytes, read-out: semimaximal effect on glucose transport", "result": "> 1000", "unit": "nM"}, {"measurement": "time of treatment after which reduction of hyperglycemia was detected", "setting": "[2]; 2.5 μmol/kg/day subcutaneous", "result": "four"}, {"measurement": "effect on glycemia", "setting": "[2]", "result": "significant correction of hyperglycemia; also recorded: significant lowering in blood glucose levels; also recorded: ameliorated hyperglycemia"}, {"measurement": "effect on glycemia", "setting": "[2]; [5]", "result": "rapid reduction of the hyperglycemia"}, {"measurement": "day of treatment from which glycemia differed significantly from the untreated group", "setting": "[2]; Bonferroni post-tests, P<0.01, FIG. 8A", "result": 8}, {"measurement": "effect on glycemia", "setting": "[3]; daily oral administration, 17 days", "result": "significant correction of hyperglycemia; also recorded: significant lowering in blood glucose levels; also recorded: ameliorated hyperglycemia"}, {"measurement": "time of treatment after which decrease of hyperglycemia was detected", "setting": "[3]; oral 5 μmol/kg/day", "result": "two"}, {"measurement": "effect on hyperglycemia", "setting": "[3]; oral 5 μmol/kg/day for seven days", "result": "moderate decrease of hyperglycemia"}, {"measurement": "effect of dosage increase on glycemia", "setting": "[3]; oral 10 μmol/kg/day from day 7 for additional ten days", "result": "additional decrease in glycemia"}, {"measurement": "glycemia", "setting": "[3]; oral, after dosage increase to 10 μmol/kg/day", "result": "approximately 250 mg/dl"}, {"measurement": "plasma insulin levels", "setting": "[4]; acute administration, mice made glucose intolerant by a high fat diet", "result": "improved plasma insulin levels; also recorded: ameliorated the pattern of plasma insulin levels"}, {"measurement": "glucose tolerance", "setting": "[4]; high-fat fed mice", "result": "amelioration of glucose tolerance"}]}]}
